Experimental data published in EPA's aquatic toxicity sets.

System: Pimephales promelas
Experiment: 96 h LC50 (-log10 mol/L); higher = more toxic

Row | Structure (SMILES) | 96 h LC50 (-log10 mol/L)
1 | O=Cc1ccco1 | 3.57
2 | CC(C)[C@@H]1CC[C@@H](C)C[C@H]1O | 3.92
3 | CC(O)C#N (centres undefined) | 4.9
4 | O=C(O)c1c(F)cccc1F | 3.36
5 | CC(=O)C(C)CN(C)C (centres undefined) | 4.18
6 | Cc1ccc([N+](=O)[O-])c(N)c1[N+](=O)[O-] | 4.21
7 | O=S1OCC2C(CO1)C1(Cl)C(Cl)=C(Cl)C2(Cl)C1(Cl)Cl (centres undefined) | 8.48
8 | CCOC(=O)C(C)N(C(=O)c1ccccc1)c1ccc(Cl)c(Cl)c1 (centres undefined) | 5.81
9 | CN(C)C(=O)N[C@@H]1C[C@@H]2C[C@H]1[C@@H]1CCC[C@H]21 | 3.84
10 | Oc1ccc(Cl)cc1 | 4.46
11 | CS(=O)(=O)Oc1ccc(Cl)cc1Cl | 4.74
12 | OC1COC(O)C(O)C1O (centres undefined) | 0.6
13 | O=Cc1c(F)cccc1Cl | 4.23
14 | Cc1cc(Cl)ccc1OCCCC(=O)O | 4.26
15 | CCNCCO | 1.78
16 | O=[N+]([O-])C(CO)(CO)CO | 2.73
17 | O=CN(c1ccccc1)c1ccccc1 | 3.81
18 | CCOC(=O)CC(S)C(=O)OCC (centres undefined) | 3.77
19 | c1ccc(-c2ccc(-c3ccccc3)o2)cc1 | 6.64
20 | C=CC(=C)C | 2.95
21 | C#CCN(CC#C)CC#C | 2.65
22 | CCN(CC)C1CCCCC1 | 3.86
23 | CCOP(=S)(OCC)SCSP(=S)(OCC)OCC | 5.73
24 | C=C(CCl)CCl | 5.82

Row | Structure (SMILES) | 96 h LC50 (-log10 mol/L)
25 | Cc1c([N+](=O)[O-])ccc([N+](=O)[O-])c1N | 5.37
26 | CCCCN | 2.44
27 | Oc1cc(Cl)c(Cl)cc1O | 5.3
28 | OCCN1CCNCC1 | 1.31
29 | C=C[C@@]1(C)CC[C@H]2C(=CC[C@@H]3[C@]2(C)CCC[C@@]3(C)C(=O)O)C1 | 5.54
30 | OCCOCCO | 0.15
31 | CCN(CC)c1ccc(C=O)c(O)c1 | 4.56
32 | C1=C[C@H]2CC[C@@H]1C2 | 3.97
33 | Cc1ccccc1F | 3.75
34 | CCCCN(C=O)CCCC | 3.25
35 | Cc1cccc([N+](=O)[O-])c1N | 3.8
36 | O[C@@H]1CCCC[C@H]1c1ccccc1 | 3.6
37 | C#CC(C)(O)c1ccccc1 (centres undefined) | 3.11
38 | C=CCCCCCCC=C | 5.68
39 | Oc1ccccc1Cl | 4.02
40 | C=CCNc1ccccc1 | 3.57
41 | O=C(CCl)c1ccc(Cl)cc1 | 4.21
42 | C1C2CC3CC1CC(C2)C3 | 5.68
43 | CCOC(CN(C)CC(OCC)OCC)OCC | 2.62
44 | CC(C)(c1cc(Cl)c(O)c(Cl)c1)c1cc(Cl)c(O)c(Cl)c1 | 5.44
45 | CC(C)Nc1nc(Cl)nc(NC2CC2)n1 | 4.8
46 | CC1=CC[C@@H]2C[C@H]1C2(C)C | 5.69
47 | CCOP(=S)(OCC)SCCSCC | 4.85
48 | COP(=O)(O)OC | 3.85

Row | Structure (SMILES) | 96 h LC50 (-log10 mol/L)
49 | OC(C(F)(F)F)C(F)(F)F | 2.84
50 | C#CCC(C)O (centres undefined) | 3.38
51 | Fc1ccc(Oc2ccc(F)cc2)cc1 | 5.26
52 | Cc1c([N+](=O)[O-])ccc(N)c1[N+](=O)[O-] | 4.25
53 | CCOC(N)=O | 1.23
54 | c1ccc2c(c1)CCO2 | 3.17
55 | Cc1cc(C)c([N+](=O)[O-])cc1[N+](=O)[O-] | 4.39
56 | CC1=CCC(=C(C)C)CC1 | 5.05
57 | NNC(N)=S | 3.64
58 | Oc1ccc(Oc2ccc(O)cc2)cc1 | 4.54
59 | Cc1ccc(N=C=O)cc1N=C=O | 3.02
60 | Cc1cc2cccc(C)c2cc1C | 4.42
61 | CCCSSCCC | 4.76
62 | CC(=O)Cl | 3.27
63 | CCCCCCC(C)N (centres undefined) | 4.4
64 | CCSCCCCSCC | 4.47
65 | CCC(C)c1cccc(OC(=O)N(C)Sc2ccccc2)c1 (centres undefined) | 6.91
66 | CCOC(=O)CCC(=O)OCC | 3.1
67 | COc1ccc(O)cc1 | 3.11
68 | COc1ccc(C(C)=O)c(OC)c1OC | 3.02
69 | CC(=O)O | 2.86
70 | OCCOc1ccccc1 | 2.6
71 | ClC1=C(Cl)[C@]2(Cl)C3C(Cl)C(Cl)CC3[C@@]1(Cl)C2(Cl)Cl (some centres undefined) | 6.82
72 | CCNc1cccc(C)c1 | 3.44

Row | Structure (SMILES) | 96 h LC50 (-log10 mol/L)
73 | Oc1c(Cl)cc(Cl)c(Cl)c1Cc1c(O)c(Cl)cc(Cl)c1Cl | 7.29
74 | CCc1cccc(C)c1N(C(=O)CCl)C(C)COC (centres undefined) | 4.54
75 | O=[N+]([O-])c1ccc(/C=C/c2cccc(CO)n2)o1 | 5.48
76 | CC1(C)NC(=O)NC1=O | 0.89
77 | C#CC(C)(O)CCC(C)C (centres undefined) | 3.46
78 | N#Cc1ccccc1C(F)(F)F | 3.61
79 | CCOC(=O)/C=C/C(=O)OCC | 4.58
80 | CCCCOCCOC(=O)C(C)Oc1cc(Cl)c(Cl)cc1Cl (centres undefined) | 5.57
81 | CCOP(=S)(Oc1ccc([N+](=O)[O-])cc1)c1ccccc1 (centres undefined) | 6.21
82 | C=C(C)[C@H]1CC=C(C)CC1 | 5.28
83 | O=C(O)[C@@H]1[C@H](C(=O)O)[C@H]2CC[C@@H]1O2 | 4.08
84 | CCNc1nc(NC(C)C)nc(SC)n1 | 4.38
85 | Cc1ccc(S(=O)(=O)n2ccnc2)cc1 | 3.73
86 | COC(=O)C1C(C(=O)OC)C2(Cl)C(Cl)=C(Cl)C1(Cl)C2(Cl)Cl (centres undefined) | 5.38
87 | CCOC(=O)[C@H](C)N(C(=O)c1ccccc1)c1ccc(Cl)c(Cl)c1 | 5.68
88 | Nc1ccc([N+](=O)[O-])cc1Cl | 3.93
89 | ClC1(Cl)C2(Cl)C3(Cl)C4(Cl)C(Cl)(Cl)C5(Cl)C3(Cl)C1(Cl)C5(Cl)C24Cl (centres undefined) | 3.62
90 | CCN(CC)N=O | 2.12
91 | COc1cc(C=O)cc(Br)c1O | 3.59
92 | O=CC=O | 2.43
93 | CC(=O)c1ccc(Cl)c([N+](=O)[O-])c1 | 4.56
94 | CC(C)(C)c1ccc(Oc2cccc(C=O)c2)cc1 | 5.84
95 | Brc1ccccc1 | 4.45
96 | OC(c1ccc(Cl)cc1)(c1ccc(Cl)cc1)C(Cl)(Cl)Cl | 5.86

Row | Structure (SMILES) | 96 h LC50 (-log10 mol/L)
97 | CC(C)Oc1cccc(NC(=O)c2ccccc2C(F)(F)F)c1 | 4.83
98 | CCCCOCC(C)OC(=O)C(C)Oc1cc(Cl)c(Cl)cc1Cl (centres undefined) | 4.73
99 | COc1ccc(C(c2ccc(OC)cc2)C(Cl)(Cl)Cl)cc1 | 7.61
100 | Cc1cocn1 | 1.78
101 | BrC(Br)c1ccccc1C(Br)Br | 5.99
102 | CCC(C)C=O (centres undefined) | 3.94
103 | CCOC(=O)[C@H](O)[C@@H](O)C(=O)OCC | 2.5
104 | CCCCCCCCCCc1ccc(N)cc1 | 6.57
105 | CCNS(=O)(=O)C(F)(F)C(F)(F)C(F)(F)C(F)(F)C(F)(F)C(F)(F)C(F)(F)C(F)(F)F | 6.45
106 | OCC(F)(F)F | 2.92
107 | CC1(C)[C@@H]2CC[C@@]1(C)C(=O)C2 | 3.14
108 | C1CCOC1 | 1.52
109 | O=C(O)C(Cl)(Cl)Cl | 1.91
110 | O=C(Cl)c1ccccc1 | 3.61
111 | COc1cc(Cl)c(Cl)cc1O | 4.63
112 | Cc1cc(O)c([N+](=O)[O-])cc1[N+](=O)[O-] | 4.79
113 | O=Cc1cccc(C(F)(F)F)c1 | 5.28
114 | ClCCOCOCCCl | 2.97
115 | CC=CC=CC | 3.61
116 | CCN(CC)c1c([N+](=O)[O-])cc(C(F)(F)F)c(N)c1[N+](=O)[O-] | 5.39
117 | C=C(C)C(=C)C | 4.08
118 | CNC(=O)ON=C(SC)C(=O)N(C)C | 4.51
119 | CC12CCC(CC1)C(C)(C)O2 | 3.18
120 | CCC(C)n1c(=O)[nH]c(C)c(Br)c1=O (centres undefined) | 3.15

Row | Structure (SMILES) | 96 h LC50 (-log10 mol/L)
121 | CC(C)(C)c1ccc(CSc2cnn(C(C)(C)C)c(=O)c2Cl)cc1 | 8.2
122 | O=Cc1cc([N+](=O)[O-])ccc1Cl | 4.67
123 | CCOC(=O)C(F)(F)F | 1.15
124 | CCCCCCCC/C=C\CCCCCCCC(=O)O | 3.14
125 | C=C1[C@H]2CC[C@@H]3[C@H]2C(C)(C)CCC[C@]13C | 4.3
126 | CN(C)C(=O)C(c1ccccc1)c1ccccc1 | 3.7
127 | COc1ccc(OC)cc1 | 3.07
128 | Nc1ccc(O)c([N+](=O)[O-])c1 | 3.63
129 | C#CC(O)CCCCC (centres undefined) | 5.49
130 | COCOC | 1.04
131 | CCCSCCC | 3.74
132 | NC(=O)c1cccc(Br)c1 | 3.33
133 | CC1CNCC(C)O1 (centres undefined) | 2.47
134 | Cl[C@@H]1CCCC[C@H]1Cl | 3.92
135 | ClCc1ccc(CCl)cc1 | 6.65
136 | ClC1=C(Cl)C2(Cl)C3C(Cl)C=CC3C1(Cl)C2(Cl)Cl (centres undefined) | 6.75
137 | CCCCOc1ccccc1 | 4.42
138 | O=C1C2CC=CCC2C(=O)N1SC(Cl)(Cl)Cl (centres undefined) | 6.35
139 | ClCCCCCl | 3.39
140 | CC(C)SSC(C)C | 4.26
141 | CC(C)=CCC/C(C)=C/CO | 4.59
142 | Cc1c(N)cccc1[N+](=O)[O-] | 3.48
143 | CCCCN(CC)c1c([N+](=O)[O-])cc(C(F)(F)F)cc1[N+](=O)[O-] | 6.53
144 | C=C(C)C(=O)OCCOCC | 3.76
